Key:
[1] = system: cultured neuronal network (cortical neurons); test: Spiking activity of cultured cortical neuronal network on multi electrode array (MEA); format: cell-based, rat
Procedure: Cortical neurons were obtained from newborn rats within 24 hours from birth, following standard harvesting procedures (Culturing nerve cells, 2nd edition, Gary Ranker and Kimberly Goslin, 1998). The cortex tissue was digested enzymatically and mechanically dissociated and the neurons were plated directly onto substrate-integrated multi-electrode array (MEA) dishes prepared as described below. The cultures were bathed in MEM which was supplemented with heat-inactivated horse serum (5%), Glutamine (0.5 mM), Glucose (20 mM), and Gentamycin (10 μg/ml), and maintained in a tissue culture incubator at 37° C., 5% CO2 and 95% during the recording phases. Half of the medium was exchanged twice a week and the experiments were performed during the third week following plating, thus allowing complete maturation of the neurons (FIGS. 1a-b).
Arrays of 60 Ti/Au/TiN electrodes, 30 μm in diameter, spaced 200 μm from each other (MultiChannelSystems (MCS), Reutlingen, Germany) were utilized in the present study. The insulation layer (silicon nitride), was pretreated with poly-L-lysine forming a good surface for network development. A commercial 60-channel amplifier (B-MEA-1060, MCS, Reutlingen, Germany) with frequency limit range of 10-3000 Hz and a gain of ×1024 was utilized for signal amplification. The amplifier was connected to MCPPlus filter amplifiers (Alpha Omega, Nazareth, Israel) for further amplification (×10 to ×20). Stimulation through the MEA was performed using a dedicated 8-channel stimulus generator (MCS, Reutlingen, Germany).
In addition, the micro-incubation environment was arranged to support long-term recordings from MEA dishes. This was achieved by streaming a filtered, heated and humidified air/CO2 (95/5%) gas mixture, and by electrically heating the MEA platform to 37° C. Data is digitized using two 5200a/526 A/D boards (Microstar Laboratories, Wash., USA).
Following electrical functionality determination, the neuronal network cultures were incubated with various electrical conduction blockers.

[2] = system: cardiomyocytes co-cultured with fibroblasts (NIH 3T3) transfected with voltage gated potassium channel Kv1.3; test: CTX on MEA-recorded activity of cardiomyocytes co-cultured with Kv1.3 transfected fibroblasts (Example 5); format: cell-based, rat; conditions: for increase of spontaneous activity rate: co-cultures with transfected fibroblasts
Procedure: (§1) Monolayer cultures of neonatal rat ventricular cardiomyocytes (NRVM) were prepared as previously described (Rubin et al, 1995), with some modifications. The cultures were maintained in a humidified incubator under a controlled environment of 5% CO2+95% air at 37° C.; fresh medium was replaced on alternating days.
(§2) Fibroblasts from the NIH 3T3 cell line were transfected with an expression cassette which included a mutant voltage gated potassium channel (Kv1.3) coding sequence (GeneBank Accession number H18261) placed under the transcription control of a constitutive promoter using standard procedures. Fibroblast cultures not transfected with the channel coding sequence were produced from the NIH 3T3 cell-line.
(§3) Once well synchronous spontaneous activity was established in the cardiomyocyte cultures, fibroblasts transfected with the Kv1.3 channel coding sequence or non-transfected fibroblasts were added to the cultures. Two different methods where used to seed the fibroblasts. In the first method, the fibroblast were suspended in trypsin for 5 minutes following which they were seeded in a diffuse pattern in the cardiomyocytic cultures (FIG. 4a). In the second method, the fibroblasts where pipetted up and down through a 5 ml pipette for 2 minutes and seeded in the cardiomyocytic cultures thus were forming clusters of fibroblasts (FIG. 4b).
Extracellular recordings from cultured cardiomyocytes were performed on a PC-based Microelectrode Data Acquisition System (Multi Channel Systems, Reutlingen, Germany), consisting of Multi-Electrode Array (MEA), pre- and filter-amplifiers, data acquisition board, and software. The MEA consists of a 50×50 mm glass substrate, in the center of which is an embedded 0.7×0.7 or 1.4×1.4 mm matrix of 60 Titanium-nitride, gold contacts 10 or 30 μm diameter electrodes insulated with silicone nitride, with inter-electrode distance of 100 or 200 μm (there are no electrodes in the corners of the matrix). Data were recorded at 10-25 KHz with 12-bit precision. During the recording sessions, the MEA (removed from the regular incubator) was constantly perfused with a gas mixture consisting of 5% CO2+95% air. Temperature was kept at 37±0.10° C.
Recorded data was filtered using cutoff frequency of 2 KHz (Fast et al, 1993). The filtered signal was then differentiated digitally to determine the Local Activation Time (LAT) at each electrode, corresponding to dF/dtmin (where F is the filtered signal) (Dolber and Spach, 1986). Color-coded activation maps were constructed by interpolating the LAT values for the sites between the electrodes, and by extrapolating the LAT values for the 4 corners of the MEA matrix. Activation maps were plotted by means of Matlab standard 2-d plotting function (pcolor) (Matlab 5.3 Mathworks Incorporated©). Conduction velocity was calculated by standard methods (Bayly et al, 1988).
(§4) Conduction block quantification is central to evaluating conduction block development in the cell cultures, and to evaluating reversibility of the conduction block following CTX application. A conduction block was determined using the following algorithm: […]
(§5) Electrical activity of the cultures was recorded on day one immediately prior to seeding of the fibroblasts and then daily until the cultures died or no spontaneous activity was detected. […]

[3] = system: cardiomyocyte cultures or cardiomyocytes co-cultured with untransfected fibroblasts; test: CTX on MEA-recorded activity of control cultures (Example 5); format: cell-based, rat; conditions: for increase of spontaneous activity rate: control cultures
Procedure: as §1, §2
as §3, with “In the second method, the fibroblasts where pipetted up and down through a 5 ml pipette for 2 minutes and seeded in the cardiomyocytic cultures thus were forming clusters of fibroblasts (FIG. 4b).” left out
Extracellular recordings from cultured cardiomyocytes were performed on a PC-based Microelectrode Data Acquisition System (Multi Channel Systems, Reutlingen, Germany), consisting of Multi-Electrode Array (MEA), pre- and filter-amplifiers, data acquisition board, and software. […] Data were recorded at 10-25 KHz with 12-bit precision. […]
Recorded data was filtered using cutoff frequency of 2 KHz (Fast et al, 1993). […] Conduction velocity was calculated by standard methods (Bayly et al, 1988).
as §4, §5

[4] = system: cardiomyocyte cultures seeded with Kv1.3 expressing fibroblasts; test: CTx on spontaneous beating rate of study co-cultures (Kv1.3 expressing fibroblasts) (Example 8); format: cell-based, rat; conditions: CTx 100 nM, study group (FIG. 18b)
Procedure: (§6) Expression system and electrophysiological recordings—NIH 3T3 fibroblast cells (ATCC: CRL 1658) were stably transfected to express the voltage gated potassium channel Kv1.3 as previously described [Feld Y. et al. Circulation. (2002); 105:522-529]. Briefly, stable transfection of pRC/CMV/Kv1.3 in fibroblasts was achieved using electroporation with a single pulse of 200 V, 960° F. followed by antibiotic selection of NeoR clones with 400 μg/mL of G-418 (GIBCO, Langley, Okla., USA). Colonies were picked and tested for channel expression using whole-cell patch clamp recordings. The recordings were conducted at room temperature using Axopatch 200 (Axon Instruments). Kv1.3 expressing fibroblast were generated as previously described [Feld Y. et al. Circulation. (2002); 105:522-9]. […]
(§7) Once a well synchronous spontaneous activity was established in the cardiomyocyte cultures, fibroblasts (naïve, or Kv1.3 expressing fibroblasts) were seeded in a diffuse manner into the cardiomyocytic cultures. Two groups were studied: The cultures were studied daily, and the electrophysiological properties, essentially the spontaneous beating rate of the culture, was assessed at baseline and following application of the specific Kv1.3 blocker, Charybdotoxin (CTx), at increasing dosages (1, 10, 100 nM). […]

[5] = system: cardiomyocyte cultures seeded with naive fibroblasts; test: CTx on spontaneous beating rate of control co-cultures (naive fibroblasts) (Example 8); format: cell-based, rat; conditions: CTx application, control group
Procedure: as §6, §7

[6] = molecular target: mutant voltage gated potassium channel Kv1.3 (GenBank Accession number H18261) expressed in NIH 3T3 fibroblasts; test: cell-based or functional assay
[7] = system: Kv 1.3 channel of grafted fibroblasts in left ventricular myocardium; test: ERP after Margatoxin in rats grafted with Kv1.3 fibroblasts; format: in vivo, rat; conditions: 9 μg/kg intraperitoneal bolus; for local ventricular ERP at the site of cell transplantation after MTx, group mean: 154±13 ms before blocker (FIG. 19b)
Procedure: (§8) Rat model—Male Sprague-Dawley rats weighing 200-250 gr were anesthetized using A Xylasine (0.5 mg/kg) and Ketamine (0.5 mg/kg) preparation [see Example 7]. The animals were then intubated and ventilated using a Harvard small-animal mechanical respirator. The chest wall was opened using a left thoracotomy and the heart was exposed. After removal of the pericardium, a total of 6×10^6 cells (either fibroblasts without transfections in the control group or fibroblast overexpressing the KV1.3 channel in the study group) were transplanted into the anterior aspect of the left ventricular wall using a 28 g needle. In order to prevent graft rejection, all animals were treated with a daily dose of cyclosporin (10 mg/kg) and methyprednisolone (2 mg/kg). The animals underwent a detailed electrophysiological study (see below) immediately before cell grafting and 7 days post-transplantation.
(§9) In vivo electrophysiological studies—The electrophysiological study in rats included a standard ventricular pacing protocol to determine the local myocardial effective refractory period (ERP). The ERP was evaluated by applying a train of 20 stimuli at a fixed cycle-length of 200 ms (S1), followed by a single premature stimulus (S2). The S1-S2 coupling interval was gradually shortened. The ERP was determined as the shortest S1-S2 coupling interval still capable of eliciting a ventricular response. Stimuli were generated using a computer controlled STG 1004 stimulus generator with the matching MC-Stim software (both from Multi Channel Systems, Reutlingen, Germany).
The ERP was measured at the site of cell transplantation and at remote sites, both prior to cell transplantation and seven days following cell grafting. In order to dissect the role of the overexpressed channel in altering the local myocardial electrophysiological properties, the ERP was measured also at each site following application of 9 μg/kg of Margatoxin (Alomone Labs, Jerusalem, Israel), a specific Kv 1.3 channel blocker as an intraperitoneal bolus.

[8] = system: left ventricular myocardium grafted with naive fibroblasts; test: ERP after Margatoxin in rats grafted with naive fibroblasts (control group); format: in vivo, rat; conditions: animals grafted with naive fibroblasts, 88±4 ms before blocker
Procedure: as §8, with “The animals underwent a detailed electrophysiological study (see below) immediately before cell grafting and 7 days post-transplantation.” left out
as §9, with “The S1-S2 coupling interval was gradually shortened.” left out, “Stimuli were generated using a computer controlled STG 1004 stimulus generator with the matching MC-Stim software (both from Multi Channel Systems, Reutlingen, Germany).” left out
The ERP was measured at the site of cell transplantation and at remote sites, both prior to cell transplantation and seven days following cell grafting. […]

[9] = system: Kv1.3 channel of grafted fibroblasts in right ventricle; test: ERP after local Margatoxin in pigs grafted with Kv1.3 fibroblasts; format: in vivo, pig
Procedure: Swine model—Three domestic pigs (20-30) kg were studied. Anesthesia was induced with 5-10 ml of intravenous sodium pentothal 2.5% solution and maintained with inhaled isoflurane (2%) in oxygen. Following a right thoracotomy, each heart was exposed and a total of 6×10^6 cells were transplanted at a total of 7 different locations in the anterior free wall of the right ventricle. Cells were delivered using a 25 g needle using an injection volume of 250 μl. The sites of cell transplantation were marked with a suture. To prevent graft rejection, the animals were treated with an immunosuppressive regimen (cyclosporine, 10 mg/kg/d and methylprednisolone, 3 mg/kg/d). 7 days following cell transplantation, a second thoracotomy and a detailed epicardial electrophysiological study were performed.
The ERP in the pigs was measured in a similar manner to that in the rats but using slower basic stimulation intervals (CLs of 350, 400 and 500 ms). The ERP was measured at the site of cell transplantation as well as in remote sites and also following local intramyocardial injection of Margatoxin at the examined sites.

Compound: CN1CCc2cc3c(cc2[C@H]1[C@@H]1OC(=O)c2c1ccc1c2OCO1)OCO3 [bicuculin]
- spiking activity ([1]; 5 μM added to the cultured neuronal network): completely abolished

Compound: O=[N+]([O-])c1cc2nc(O)c(O)nc2cc1[N+](=O)[O-] [DNQX]
- spiking activity ([1]; 10 μM added to the cultured neuronal network): completely abolished

Compound: Charybdotoxin (QFTNVSCTTSKECWSVCQRLHNTSRGKCMNKKCRCYS) [CTX]
- increase of spontaneous activity rate ([2]; CTX 10 nM): 20%
- increase of spontaneous activity rate ([2]; CTX 100 nM): 55%
- conduction block factor ([2]; application of Charybdotoxin, co-cultures with Kv1.3 transfected fibroblasts, n=10 (FIG. 11)): substantially decreased
- conduction blocks ([2]; following treatment with CTX (10 nM, FIG. 7d; FIG. 11)): reversed
- uncoupling effect after fibroblast seeding ([2]; following treatment with CTX (100 nM, FIGS. 6f-g)): reversed
- increase of spontaneous activity rate ([3]; CTX 10 nM): did not increase
- increase of spontaneous activity rate ([3]; CTX 100 nM): up to 15%
- conduction block factor ([3]; application of Charybdotoxin, co-cultures with non-transfected fibroblasts, n=9 (FIG. 11)): minimal response
- reversibility of the negative chronotropic effect induced by the transfected fibroblast [4]: full reversibility
- beating frequency [5]: did not significantly alter

Compound: Margatoxin (from UniProt P40755 1-39) (peptide)
- local ventricular effective refractory period (ERP) at the graft site in one rat after Margatoxin (170 ms before) [6]: 100 ms

Compound: Margatoxin (TIINVKCTSPKQCLPPCKAQFGQSAGAKCMNGKCKCYPH)
- local ventricular ERP at the site of cell transplantation after MTx, group mean [7]: 117 ± 7.70 ms
- local ventricular ERP at the site of cell transplantation after MTx, group mean ([7]; listed as MTx): 117 ± 8 ms
- ventricular ERP at the site of cell grafting after Margatoxin, one of the animals ([7]; 170 ms before blocker (FIG. 19a)): 100 ms
- local ERP after administration of Mtx, control group [8]: did not change significantly
- local ERP after local application of MTx ([9]; pig, basic CL 400 ms, 310 ms before blocker (FIG. 20a)): 220 ms
- ventricular ERP after local application of MTx ([9]; pigs, all three CLs (FIG. 20b)): not different from the control sites

Compound: N[C@H](CCCP(=O)(O)O)C(=O)O [APV, D-2-amino-5-phosphonovalerate]
- spiking activity ([1]; 20 μM added to the cultured neuronal network): completely abolished

— patent publication US20080112927A1, “Cells and methods utilizing same for modifying the electrophysiological function of excitable tissues” (GeneGrafts Ltd., priority 2006, published 2008)
